From patent publication EP0835868A1, “2-Aryl-3-aminoaryloxynaphthyl compounds, intermediates, compositions and methods” (ELI LILLY AND COMPANY, priority 1996, dated 1998)
Structures can show the parent of a compound that is named as a salt. Marks after values point to notes of the source that are not given here.

Experiments:
Eosinophil peroxidase = experiment: Uterine Eosinophil Peroxidase (EPO) Assay on uteri of dosed ovariectomized rats; assay type: in vivo, Sprague Dawley rats; conditions: daily for 4 days, OVX rats
From the text: (§1) Seventy-five day old female Sprague Dawley rats (weight range of 200 to 225g) are obtained from Charles River Laboratories (Portage, MI). The animals are either bilaterally ovariectomized (OVX) or exposed to a Sham surgical procedure at Charles River Laboratories, and then shipped after one week. Upon arrival, they are housed in metal hanging cages in groups of 3 or 4 per cage and have ad libitum access to food (calcium content approximately 0.5%) and water for one week. Room temperature is maintained at 22.2° ± 1.7° C with a minimum relative humidity of 40%. The photoperiod in the room is 12 hours light and 12 hours dark. Dosing Regimen Tissue Collection. After a one week acclimation period (therefore, two weeks post-OVX) daily dosing with test compound is initiated. 17a-ethynyl estradiol or the test compound are given orally, unless otherwise stated, as a suspension in 1% carboxymethylcellulose or dissolved in 20% cyclodextrin. Animals are dosed daily for 4 days. Following the dosing regimen, animals are weighed and anesthetized with a ketamine: Xylazine (2:1, V:V) mixture and a blood sample is collected by cardiac puncture. The animals are then sacrificed by asphyxiation with CO2, the uterus is removed through a midline incision, and a wet uterine weight is determined.
(§2) Cholesterol Analysis. Blood samples are allowed to clot at ambient temperature for 2 hours, and serum is obtained following centrifugation for 10 minutes at 3000 rpm. Serum cholesterol is determined using a Boehringer Mannheim Diagnostics high performance cholesterol assay. Briefly, the cholesterol is oxidized to cholest-4-en-3-one […]. The hydrogen peroxide is then reacted with phenol and 4-aminophenazone in the presence of peroxidase to produce a p-quinone imine dye, which is read spectrophotemetrically at 500 nm. Cholesterol concentration is then calculated against a standard curve. The entire assay is automated using a Biomek Automated Workstation. Uterine Eosinophil Peroxidase (EPO) Assay. Uteri are kept at 4° C until time of enzymatic analysis. The uteri are then homogenized in 50 volumes of 50 mM Tris buffer (pH - 8.0) containing 0.005% Triton X-100. Upon addition of 0.01% hydrogen peroxide and 10 mM O-phenylenediamine (final concentrations) in Tris buffer, increase in absorbance is monitored for one minute at 450 nm. The presence of eosinophils in the uterus is an indication of estrogenic activity of a compound. The maximal velocity of a 15 second interval is determined over the initial, linear portion of the reaction curve. Source of Compound: 17a-ethynyl estradiol was obtained from Sigma Chemical Co., St. Louis, MO.

[1] = system: female Sprague Dawley rats; experiment: Estrogen deprivation model in ovariectomized rats: serum cholesterol analysis; assay type: in vivo; conditions: daily for 4 days, OVX rats, decrease versus ovariectomized controls
Description: (§3) In the examples illustrating the methods, an estrogen deprivation model was used in which effects of different treatments upon circulating lipids were determined.
as §1, §2

[2] = system: female Sprague Dawley rats; experiment: Estrogen deprivation model in ovariectomized rats: wet uterine weight; assay type: in vivo; conditions: daily for 4 days, OVX rats, % increase versus the ovariectomized controls
Description: as §3, §1

| Structure (SMILES) | Uterine Eosinophil (Vmax) (Eosinophil peroxidase; 0.1 mg/kg PO) | Serum Cholesterol (% Dec.) ([1]; 0.1 mg/kg PO) | Uterine Weight (% Inc.) ([2]; 0.1 mg/kg PO) | Uterine Eosinophil (Vmax) (Eosinophil peroxidase; 1.0 mg/kg PO) | Uterine Eosinophil (Vmax) (Eosinophil peroxidase; 10.0 mg/kg PO) | Serum Cholesterol (% Dec.) ([1]; 1.0 mg/kg PO) | Serum Cholesterol (% Dec.) ([1]; 10.0 mg/kg PO) | Uterine Weight (% Inc.) ([2]; 1.0 mg/kg PO) | Uterine Weight (% Inc.) ([2]; 10.0 mg/kg PO) | Uterine Eosinophil (Vmax) (Eosinophil peroxidase; 0.01 mg/kg PO) | Serum Cholesterol (% Dec.) ([1]; 0.01 mg/kg PO) | Uterine Weight (% Inc.) ([2]; 0.01 mg/kg PO) |
| --- | --- | --- | --- | --- | --- | --- | --- | --- | --- | --- | --- | --- |
| C#C[C@]1(O)CC[C@H]2[C@@H]3CCc4cc(O)ccc4[C@H]3CC[C@@]21C [EE2, 17-a-Ethynyl-estradiol, reference compound] | 54.6* | 75.9* % Dec. | 96.0* % Inc. | – | – | – | – | – | – | – | – | – |
| O=C(CN1CCCCC1)Nc1ccc(Oc2c(-c3ccc(O)cc3)ccc3cc(O)ccc23)cc1 [Example 2, 1-[4-[2-(1-Piperidinyl)acetylamido]phenoxy-2-(4-hydroxyphenyl)-6-hydroxynaphthalene Hydrochloride] | 1.8 | 27 % Dec. | 13.6 % Inc. | 11.7 | 71.1* | 66.4* % Dec. | 57.6* % Dec. | 59.0* % Inc. | 107.0* % Inc. | – | – | – |
| Oc1ccc(-c2ccc3cc(O)ccc3c2Oc2ccc(NCCN3CCCCC3)cc2)cc1 [Example 4, 1-[4-[2-(1-Piperidinyl)ethylamino]phenoxy]-2-(4-hydroxyphenyl)-6-hydroxynaphthalene] | 4.5 | 59.9* % Dec. | 39.8* % Inc. | 5.4 | – | 75.3* % Dec. | – | 25.4 % Inc. | – | 2.7 | 20.8* % Dec. | 7.1 |
